Columns and labels:
[1] = Form change on heating, drying or exposure to ambient conditions; format: physicochemical; settings: ambient temperature and humidity / storage at ambient conditions
Text: Form V has only been truly isolated by growth of single crystals.
Isolated solids were dried with filter paper to remove residual solvents and analyzed by DSC, TGA and KF. […] (FIG. 45).
The sample was stirred for more than two months before being placed into storage without agitation and at ambient conditions. […] The material was collected by vacuum filtration and dried under ambient conditions. […] (FIG. 48).

[2] = Competition slurries between crystalline forms; format: physicochemical; settings: ethanol, agitating overnight

## Cc1cc(F)c(C(=O)Nc2cccc(-c3nncn3C(C)C)n2)cc1-n1cnc(C2CC2)c1 [Compound I Form VII, 5-(4-cyclopropyl-1H-imidazol-1-yl)-N-(6-(4-isopropyl-4H-1,2,4-triazol-3-yl)pyridin-2-yl)-2-fluoro-4-methylbenzamide]
[1]
  form change at ambient conditions: rapidly converts back to Compound I Form IV
[2]
  outcome of competitive slurry with Compound I Form I: full conversion of Compound I Form VII to Compound I Form I
